# Key:
# Assay type in all cases: functional
# [1] = system: Penicillium; experiment: Antimicrobial activity against Penicillium wild strain assessed as diameter of growth inhibition zone at 250 ug/ml after 48-96 hr by agar cup diffusion method; settings: read-out: DIZ
# [2] = system: Penicillium; experiment: Antimicrobial activity against Penicillium wild strain assessed as diameter of growth inhibition zone at 100 ug/ml after 48-96 hr by agar cup diffusion method; settings: read-out: DIZ
# [3] = system: Trichophyton rubrum; experiment: Antimicrobial activity against Trichophyton rubrum MTCC 296 assessed as diameter of growth inhibition zone at 100 ug/ml after 48-96 hr by agar cup diffusion method; settings: read-out: DIZ
# [4] = system: Aspergillus clavatus; experiment: Antimicrobial activity against Aspergillus clavatus MTCC 1323 assessed as diameter of growth inhibition zone at 100 ug/ml after 48-96 hr by agar cup diffusion method; settings: read-out: DIZ
# [5] = system: Candida albicans; experiment: Antimicrobial activity against Candida albicans MTCC 227 assessed as diameter of growth inhibition zone at 100 ug/ml after 48-96 hr by agar cup diffusion method; settings: read-out: DIZ
# [6] = system: Penicillium; experiment: Antimicrobial activity against Penicillium wild strain assessed as diameter of growth inhibition zone at 50 ug/ml after 48-96 hr by agar cup diffusion method; settings: read-out: DIZ
# [7] = system: Trichophyton rubrum; experiment: Antimicrobial activity against Trichophyton rubrum MTCC 296 assessed as diameter of growth inhibition zone at 50 ug/ml after 48-96 hr by agar cup diffusion method; settings: read-out: DIZ
# [8] = system: Aspergillus clavatus; experiment: Antimicrobial activity against Aspergillus clavatus MTCC 1323 assessed as diameter of growth inhibition zone at 50 ug/ml after 48-96 hr by agar cup diffusion method; settings: read-out: DIZ
# [9] = system: Candida albicans; experiment: Antimicrobial activity against Candida albicans MTCC 227 assessed as diameter of growth inhibition zone at 50 ug/ml after 48-96 hr by agar cup diffusion method; settings: read-out: DIZ
# [10] = system: Penicillium; experiment: Antimicrobial activity against Penicillium wild strain assessed as diameter of growth inhibition zone at 25 ug/ml after 48-96 hr by agar cup diffusion method; settings: read-out: DIZ
# [11] = system: Trichophyton rubrum; experiment: Antimicrobial activity against Trichophyton rubrum MTCC 296 assessed as diameter of growth inhibition zone at 25 ug/ml after 48-96 hr by agar cup diffusion method; settings: read-out: DIZ
# [12] = system: Aspergillus clavatus; experiment: Antimicrobial activity against Aspergillus clavatus MTCC 1323 assessed as diameter of growth inhibition zone at 25 ug/ml after 48-96 hr by agar cup diffusion method; settings: read-out: DIZ
# [13] = system: Candida albicans; experiment: Antimicrobial activity against Candida albicans MTCC 227 assessed as diameter of growth inhibition zone at 25 ug/ml after 48-96 hr by agar cup diffusion method; settings: read-out: DIZ
# [14] = system: Penicillium; experiment: Antimicrobial activity against Penicillium wild strain by agar cup diffusion method
# [15] = system: Aspergillus clavatus; experiment: Antimicrobial activity against Aspergillus clavatus MTCC 1323 by agar cup diffusion method
# [16] = system: Pseudomonas aeruginosa; experiment: Antimicrobial activity against Pseudomonas aeruginosa MTCC 1688 assessed as diameter of growth inhibition zone at 25 ug/ml after 18-24 hr by agar cup diffusion method; settings: read-out: DIZ
# [17] = system: Escherichia coli; experiment: Antimicrobial activity against Escherichia coli MTCC 443 assessed as diameter of growth inhibition zone at 25 ug/ml after 18-24 hr by agar cup diffusion method; settings: read-out: DIZ
# [18] = system: Staphylococcus aureus; experiment: Antimicrobial activity against Staphylococcus aureus MTCC 96 assessed as diameter of growth inhibition zone at 25 ug/ml after 18-24 hr by agar cup diffusion method; settings: read-out: DIZ
# [19] = system: Streptococcus pyogenes; experiment: Antimicrobial activity against Streptococcus pyogenes MTCC 442 assessed as diameter of growth inhibition zone at 25 ug/ml after 18-24 hr by agar cup diffusion method; settings: read-out: DIZ
# [20] = system: Klebsiella pneumoniae; experiment: Antimicrobial activity against Klebsiella pneumoniae MTCC 109 by agar cup diffusion method
# [21] = system: Escherichia coli; experiment: Antimicrobial activity against Escherichia coli MTCC 443 by agar cup diffusion method
# [22] = system: Pseudomonas aeruginosa; experiment: Antimicrobial activity against Pseudomonas aeruginosa MTCC 1688 by agar cup diffusion method
# [23] = system: Staphylococcus aureus; experiment: Antimicrobial activity against Staphylococcus aureus MTCC 96 by agar cup diffusion method
# [24] = system: Streptococcus pyogenes; experiment: Antimicrobial activity against Streptococcus pyogenes MTCC 442 by agar cup diffusion method
# [25] = system: Trichophyton rubrum; experiment: Antimicrobial activity against Trichophyton rubrum MTCC 296 by agar cup diffusion method
# [26] = system: Candida albicans; experiment: Antimicrobial activity against Candida albicans MTCC 227 by agar cup diffusion method
# [27] = system: Klebsiella pneumoniae; experiment: Antimicrobial activity against Klebsiella pneumoniae MTCC 109 assessed as diameter of growth inhibition zone at 250 ug/ml after 18-24 hr by agar cup diffusion method; settings: read-out: DIZ
# [28] = system: Pseudomonas aeruginosa; experiment: Antimicrobial activity against Pseudomonas aeruginosa MTCC 1688 assessed as diameter of growth inhibition zone at 250 ug/ml after 18-24 hr by agar cup diffusion method; settings: read-out: DIZ
# [29] = system: Escherichia coli; experiment: Antimicrobial activity against Escherichia coli MTCC 443 assessed as diameter of growth inhibition zone at 250 ug/ml after 18-24 hr by agar cup diffusion method; settings: read-out: DIZ
# [30] = system: Staphylococcus aureus; experiment: Antimicrobial activity against Staphylococcus aureus MTCC 96 assessed as diameter of growth inhibition zone at 250 ug/ml after 18-24 hr by agar cup diffusion method; settings: read-out: DIZ
# [31] = system: Streptococcus pyogenes; experiment: Antimicrobial activity against Streptococcus pyogenes MTCC 442 assessed as diameter of growth inhibition zone at 250 ug/ml after 18-24 hr by agar cup diffusion method; settings: read-out: DIZ
# [32] = system: Klebsiella pneumoniae; experiment: Antimicrobial activity against Klebsiella pneumoniae MTCC 109 assessed as diameter of growth inhibition zone at 100 ug/ml after 18-24 hr by agar cup diffusion method; settings: read-out: DIZ
# [33] = system: Pseudomonas aeruginosa; experiment: Antimicrobial activity against Pseudomonas aeruginosa MTCC 1688 assessed as diameter of growth inhibition zone at 100 ug/ml after 18-24 hr by agar cup diffusion method; settings: read-out: DIZ
# [34] = system: Escherichia coli; experiment: Antimicrobial activity against Escherichia coli MTCC 443 assessed as diameter of growth inhibition zone at 100 ug/ml after 18-24 hr by agar cup diffusion method; settings: read-out: DIZ
# [35] = system: Staphylococcus aureus; experiment: Antimicrobial activity against Staphylococcus aureus MTCC 96 assessed as diameter of growth inhibition zone at 100 ug/ml after 18-24 hr by agar cup diffusion method; settings: read-out: DIZ
# [36] = system: Streptococcus pyogenes; experiment: Antimicrobial activity against Streptococcus pyogenes MTCC 442 assessed as diameter of growth inhibition zone at 100 ug/ml after 18-24 hr by agar cup diffusion method; settings: read-out: DIZ
# [37] = system: Klebsiella pneumoniae; experiment: Antimicrobial activity against Klebsiella pneumoniae MTCC 109 assessed as diameter of growth inhibition zone at 50 ug/ml after 18-24 hr by agar cup diffusion method; settings: read-out: DIZ
# [38] = system: Pseudomonas aeruginosa; experiment: Antimicrobial activity against Pseudomonas aeruginosa MTCC 1688 assessed as diameter of growth inhibition zone at 50 ug/ml after 18-24 hr by agar cup diffusion method; settings: read-out: DIZ
# [39] = system: Escherichia coli; experiment: Antimicrobial activity against Escherichia coli MTCC 443 assessed as diameter of growth inhibition zone at 50 ug/ml after 18-24 hr by agar cup diffusion method; settings: read-out: DIZ
# [40] = system: Staphylococcus aureus; experiment: Antimicrobial activity against Staphylococcus aureus MTCC 96 assessed as diameter of growth inhibition zone at 50 ug/ml after 18-24 hr by agar cup diffusion method; settings: read-out: DIZ
# [41] = system: Streptococcus pyogenes; experiment: Antimicrobial activity against Streptococcus pyogenes MTCC 442 assessed as diameter of growth inhibition zone at 50 ug/ml after 18-24 hr by agar cup diffusion method; settings: read-out: DIZ
# [42] = system: Klebsiella pneumoniae; experiment: Antimicrobial activity against Klebsiella pneumoniae MTCC 109 assessed as diameter of growth inhibition zone at 25 ug/ml after 18-24 hr by agar cup diffusion method; settings: read-out: DIZ
# [43] = system: Trichophyton rubrum; experiment: Antimicrobial activity against Trichophyton rubrum MTCC 296 assessed as diameter of growth inhibition zone at 250 ug/ml after 48-96 hr by agar cup diffusion method; settings: read-out: DIZ
# [44] = system: Aspergillus clavatus; experiment: Antimicrobial activity against Aspergillus clavatus MTCC 1323 assessed as diameter of growth inhibition zone at 250 ug/ml after 48-96 hr by agar cup diffusion method; settings: read-out: DIZ
# [45] = system: Candida albicans; experiment: Antimicrobial activity against Candida albicans MTCC 227 assessed as diameter of growth inhibition zone at 250 ug/ml after 48-96 hr by agar cup diffusion method; settings: read-out: DIZ
smiles,measurement,setting,value
O=C(/C=C/c1ccccc1Cl)C1C(=O)NC(=S)NC1=O,zone of inhibition at 250 µg/mL,[1],22 mm
same,zone of inhibition at 100 µg/mL,[2],21 mm
same,zone of inhibition at 100 µg/mL,[3],19 mm
same,zone of inhibition at 100 µg/mL,[4],21 mm
same,zone of inhibition at 100 µg/mL,[5],22 mm
same,zone of inhibition at 50 µg/mL,[6],18 mm
same,zone of inhibition at 50 µg/mL,[7],20 mm
same,zone of inhibition at 50 µg/mL,[8],19 mm
same,zone of inhibition at 50 µg/mL,[9],22 mm
same,zone of inhibition at 25 µg/mL,[10],18 mm
same,zone of inhibition at 25 µg/mL,[11],19 mm
same,zone of inhibition at 25 µg/mL,[12],18 mm
same,zone of inhibition at 25 µg/mL,[13],21 mm
same,MFC,[14],> 1000 mg/L
same,MIC,[14],> 1000 mg/L
same,MFC,[15],> 1000 mg/L
same,MIC,[15],> 1000 mg/L
same,zone of inhibition at 25 µg/mL,[16],10 mm
same,zone of inhibition at 25 µg/mL,[17],13 mm
same,zone of inhibition at 25 µg/mL,[18],10 mm
same,zone of inhibition at 25 µg/mL,[19],13 mm
same,MBC,[20],250 mg/L
same,MIC,[20],200 mg/L
same,MBC,[21],500 mg/L
same,MIC,[21],250 mg/L
same,MBC,[22],500 mg/L
same,MIC,[22],250 mg/L
same,MBC,[23],500 mg/L
same,MIC,[23],250 mg/L
same,MBC,[24],250 mg/L
same,MIC,[24],250 mg/L
same,MFC,[25],500 mg/L
same,MIC,[25],500 mg/L
same,MFC,[26],> 1000 mg/L
same,MIC,[26],250 mg/L
same,zone of inhibition at 250 µg/mL,[27],18 mm
same,zone of inhibition at 250 µg/mL,[28],18 mm
same,zone of inhibition at 250 µg/mL,[29],16 mm
same,zone of inhibition at 250 µg/mL,[30],18 mm
same,zone of inhibition at 250 µg/mL,[31],16 mm
same,zone of inhibition at 100 µg/mL,[32],15 mm
same,zone of inhibition at 100 µg/mL,[33],17 mm
same,zone of inhibition at 100 µg/mL,[34],15 mm
same,zone of inhibition at 100 µg/mL,[35],17 mm
same,zone of inhibition at 100 µg/mL,[36],15 mm
same,zone of inhibition at 50 µg/mL,[37],13 mm
same,zone of inhibition at 50 µg/mL,[38],14 mm
same,zone of inhibition at 50 µg/mL,[39],14 mm
same,zone of inhibition at 50 µg/mL,[40],14 mm
same,zone of inhibition at 50 µg/mL,[41],14 mm
same,zone of inhibition at 25 µg/mL,[42],12 mm
same,zone of inhibition at 250 µg/mL,[43],21 mm
same,zone of inhibition at 250 µg/mL,[44],22 mm
same,zone of inhibition at 250 µg/mL,[45],23 mm
